Test results published in patent publication US12194024B2, “Pharmaceutical composition of MDM2 inhibitor and use thereof for preventing and/or treating disease” (ASCENTAGE PHARMA (SUZHOU) CO., LTD., priority 2019, dated 2025).

Columns and labels:
MOLM-13 = experiment: CellTiter-Glo (CTG) cell proliferation experiment; format: cell-based; settings: Homo sapiens, TP53 wt, FLT3-ITD, 72 hours, read-out: IC50 values, nM (Mean ± SD, n = 2 or 3)
[1] = system: human MOLM-13 (AML) xenograft tumor; experiment: Systemic MOLM-13 AML mouse xenograft model; format: in vivo, NOD SCID mice
Excerpt: The comparison among three or more groups uses one-way ANOVA. If the F value has a significant difference, multiple comparisons should be carried out after the ANOVA analysis. All data analysis uses SPSS 18.0. Prism (the sixth version) is used for graphing. Attune N×T flow cytometer (Thermo Fisher Scientific Inc.) is used for analyzing tumor infiltrating lymphocytes. Data acquisition and analysis use Analyst Software 1.6.3 work station (AB sciex, Ontario, Canada). For MOLM-13 systemic model, the death date of the last mouse is used for analyzing the median total survival and generating the Kaplan-Meier curve. Logarithmic rank test and Bonferroni multiple test are used for comparing the survival curves of different treatment groups.
For systemic AML model, six- to eight-week-old female NOD SCID mice are pretreated with cyclophosphamide (150 mg/kg, intraperitoneally) continuously for two days. Then the MOLM-13 systemic AML xenograft model is established by inoculating 1×10^7 cells into the caudal vein intravenously.
For systemic AML model, the six- to eight-week-old female NOD SCID mice are pretreated with cyclophosphamide (150 mg/kg, intraperitoneally) continuously for two days. Then the MOLM-13 systemic AML xenograft model is established by inoculating 1×10^7 cells into the caudal vein intravenously. Cells grow 3 days, then are randomly divided into groups for treatment of a single drug or drugs in combination using a carrier, compound 2 (50 mg/kg, is taken orally each day for 7 days), and Aza (1.5 mg/kg, intravenous injection each day for 7 days). In the treatment process and after the treatment is completed, the mice are monitored for the occurrence of hind leg paresis (HLP) or the abdominal swelling caused by disease progression, and a body weight loss >20%.
A systemic MOLM-13 mouse xenograft model is established, and the anti-leukemia effect of compound 2 following the administration regimen of 80 mg/kg dosage, orally (po), and once every two days (q2d) is evaluated in the model (corresponding to the number 57 regimen in table 7). The experiment has two groups, and 15 animals in each group, in one group, 5 animals are used for the analysis of the proportion of CD45+ AML cells, and the remaining 10 animals are used for recording the living condition of the mice. 18 days after the cell inoculation, according to the experimental regimen, 5 animals are selected randomly from each group, bone marrow and spleen are collected, the proportion of human CD45+ AML cells in bone marrow and spleen is analyzed using flow cytometry to evaluate the disease burden of animals.
Systemic tumor model is established by inoculating MOLM-13 tumor cells through caudal vein, the administration starts on the third day after the cell inoculation, and the day of the administration is defined as the first day. Compound 2 is administered following 30 mg/kg, q2d regimens for 21 days. Azacitidine is administered following 1.5 mg/kg, qd regimens for seven days (corresponding to the number 81 regimen in table 7). […]

HL-60 = experiment: CellTiter-Glo (CTG) cell proliferation experiment; format: cell-based; settings: Homo sapiens, TP53 Del, 72 hours, read-out: IC50 values, nM (Mean ± SD, n = 2 or 3)
SKM-1 = experiment: CellTiter-Glo (CTG) cell proliferation experiment; format: cell-based; settings: Homo sapiens, TP53 mut, 72 hours, read-out: IC50 values, nM (Mean ± SD, n = 2 or 3)
OCI-AML-3 = experiment: CellTiter-Glo (CTG) cell proliferation experiment; format: cell-based; settings: Homo sapiens, TP53 wt, FLT3 wt, 72 hours, read-out: IC50 values, nM (Mean ± SD, n = 2 or 3)
MV-4-11 = experiment: CellTiter-Glo (CTG) cell proliferation experiment; format: cell-based; settings: Homo sapiens, MV4-11, TP53 wt, FLT3-ITD, 72 hours, read-out: IC50 values, nM (Mean ± SD, n = 2 or 3)
[2] = system: dimethylbenzanthracene-induced rat myelodysplastic syndrome (MDS); experiment: Dimethylbenzanthracene-induced rat myelodysplastic syndrome (MDS) model; format: in vivo, SD rat; settings: p.o., q2d×21 d; for average WBCB value of bone marrow: MDS model group 16.89±2.75; for average PLT value of bone marrow: MDS model group 52±2.49
Description: Multiple human-derived rat MDS model is used for evaluating the in vivo anti-tumor effect of compound 2 alone.
The rat myelodysplastic syndrome (MDS) model is constructed using a chemical mutagenic agent dimethylbenzanthracene (DMBA). in the rat MDS model, the changes of myelogram and hemogram are similar to that of human myelodysplastic syndromes, and it is confirmed that it can be used for the anti-MDS effect study of drugs. DMBA is administered at 50 mg/kg, i.v. Following the once per week regimen for 4 weeks totally to establish the rat MDS model. One week after the end of DMBA administration (day 28), peripheral blood is collected from the caudal vein for routine blood test to determine whether the model is established successfully.
The animals are randomly divided into groups according to the PLT level on day 28, wherein a vehicle control group (Vehicle), two dosage groups of compound 2 (10 mg/kg) and compound 2 (30 mg/kg) (corresponding to the number 23 regimen in table 3), and healthy control group (naive) are totally set, each group has 5 animals.
Compound 2 is administered following 10 mg/kg or 30 mg/kg, p.o., q2d×21 d regimens. After the administration, the peripheral blood and bone marrow cells from each group of animals for routine blood analysis.

[3] = 80 mg/kg, p.o., q2d × 3 w, versus vehicle
[4] = 80 mg/kg, po, q2d, 18 days after cell inoculation

## CCN1[C@@H](C(=O)NC23CCC(C(=O)O)(CC2)CC3)[C@H](c2cccc(Cl)c2F)[C@]2(C(=O)Nc3cc(Cl)ccc32)C12CCCCC2 [Compound 2]
MOLM-13
  IC50: 26.8 ± 4.9 nM
[1]; 80 mg/kg, p.o., q2d × 3 w, vehicle 18.5 days
  Median survival: 37.0 days
[1]; [3]
  Prolonged days of survival: 18.5 days
  prolongation of median survival: 100%
[1]; [4]
  proportion of human CD45+ AML cells in bone marrow: less than 0.1%
  proportion of human CD45+ AML cells in spleen: less than 0.1%
[1]; Compound 2 30 mg/kg q2d 21 days, Azacitidine 1.5 mg/kg qd seven days, vehicle 16 days
  Median survival: 24 days
[1]; Compound 2 30 mg/kg q2d 21 days, Azacitidine 1.5 mg/kg qd seven days, versus vehicle
  Prolonged survival: 8 days
[1]; compound 2 alone, human MOLM-13 systemic xenograft
  minimum effective dosage: 20 mg/kg
HL-60
  IC50: 2560 ± 582 nM
SKM-1
  IC50: 8950 ± 570 nM
OCI-AML-3
  IC50: 316 ± 97 nM
MV-4-11
  IC50: 166 ± 42.4 nM
[2]; 10 mg/kg
  average WBCB value of bone marrow: 47.5±10.13 cells/μl
  average PLT value of bone marrow: 116±9.35 cells/μl
[2]; 30 mg/kg
  average WBCB value of bone marrow: 62.53±13.08 cells/μl
  average PLT value of bone marrow: 124.2±23.8 cells/μl
